# Data published in US20100279324A1, “Assay For Detecting Mycobacterial Infection” (The University of Birmingham, priority 2007, published 2010).
# Tested on: T cells present in the PBL's
# Assay type: cell-based, human
# Conditions: anti-CD1b antibody, TB patients
substance,measurement,value
mycolic acid,CD1b restriction of antigen-specific response,CD1b restricted
